Experimental findings from patent US12492373B2, “Production method for nerve tissue” (Racthera Co., Ltd., priority 2014, dated 2025) are described below.

Some results are limits rather than exact numbers.

For this experiment, the system named is human iPS cells (1231A3 strain). The experiment is described as follows: Immunostaining of aggregate sections for retinal tissue markers Chx10, Rx. It is filed as cell-based. The procedure:
Here, as step 3, culturing was performed under the following condition 1 and condition 2: Under condition 1(+BMP), on day 6 after the start of suspension culturing, the medium was changed to a medium free of Y27632 and containing human recombinant BMP4 (manufactured by R&D) such that the final concentration of exogenous human recombinant BMP4 was 1.5 nM (55 ng/ml) (FIG. 6B, D). Under condition 2(−BMP), on day 6 after the start of suspension culturing, a half amount of the medium was changed to a medium free of Y27632 and free of a BMP signal transduction pathway activating substance, without adding exogenous human recombinant BMP4 (FIG. 6A, C).
The thus-prepared cell aggregates on day 23 after the start of suspension culturing, which were produced from the above iPS cells that underwent a preconditioning treatment in step 1 as a starting material were fixed with 4% para-formaldehyde to prepare frozen sections. These frozen sections were immunostained for Chx10 (anti-Chx10 antibody, Exalpha, sheep), which is one of the retinal tissue markers, or Rx (anti-Rx antibody, Takara, guinea pig), which is one of the retinal tissue markers. These immunostained sections were observed under an inverted fluorescence microscope.
Cell aggregate were prepared according to the method described in Example 8 under conditions in which human iPS cells using StemFit medium as a feeder-free medium were used as a starting material, TGFβR inhibiting substance (SB431542) or BMPR inhibiting substance (LDN193189) was used in step 1, Shh signal transduction pathway activating substance was used in step 2, and BMP signal transduction pathway activating substance was added or not added in step 3. Neural tissues were formed in all the aggregates formed under all these conditions on day 23 after the start of suspension culturing. The above cell aggregates were fixed with 4% para-formaldehyde to prepare frozen sections. These frozen sections were immunostained for Chx10 (anti-Chx10 antibody, Exalpha, sheep), which is one of the retinal tissue markers, or Rx (anti-Rx antibody, Takara, guinea pig), which is one of the retinal tissue markers. These immunostained sections were observed under an fluorescence microscope. […] Furthermore, it was found from the analysis of serial sections that, in a neural tissue having a high (not less than 95%) proportion of Chx10-positive cells, Rx is also strongly positive (FIG. 9B, D, F, H).
Cell aggregates were prepared according to the method described in Example 10 by using, as a starting material, human iPS cells using Essential 8 medium as a feeder-free culturing, under conditions that TGFβR inhibiting substance (SB431542) are used in step 1, a Shh signal transduction pathway activating substance are used in step 2, and a BMP signal transduction pathway activating substance are added or are not added in step 3. The cell aggregates on day 18 after the start of suspension culturing were each fixed with 4% para-formaldehyde to prepare frozen section. These frozen sections were immunostained for Chx10 (anti-Chx10 antibody, Exalpha, sheep), which is one of the retinal tissue markers, or Rx (anti-Rx antibody, Takara, guinea pig), which is one of the retinal tissue markers, and observed under a fluorescence microscope. […] Furthermore, it was found from the analysis of serial sections that, in a neural tissue having a high (not less than 95%) proportion of Chx10-positive cells, Rx is also strongly positive. […]
A Cell aggregate was formed on day 18 after the start of suspension culturing under every conditions, and a neural tissue was formed (FIG. 14, upper panel). The above cell aggregates on day 18 after the start of suspension culturing were each fixed with 4% para-formaldehyde to prepare frozen section. […]

Setting [1] is: Essential 8 medium, SB431542 in step 1, SAG in step 2, addition of BMP4 in step 3, day 18.
Setting [2] is: Essential 8 medium, SB431542 in step 1, SAG in step 2, no addition of BMP4 in step 3, day 18.
The mark [3] stands for this setting: SB431542 or LDN193189 in step 1, SAG 300 nM in step 2, BMP4 1.5 nM in step 3, StemFit, day 23.
Setting [4] is: LDN193189 100 nM in step 1, no SAG in step 2, BMP4 1.5 nM on day 6 in step 3, day 23.
Where [5] appears, read: LDN193189 100 nM in step 1, no SAG in step 2, without BMP4 in step 3, day 23.

On to `CNC1CCC(N(Cc2cccc(-c3ccncc3)c2)C(=O)c2sc3ccccc3c2Cl)CC1` (centres unmarked) [SAG], for which the “proportion of Chx10-positive cells in the total cells” value (A83-01 0.5 μM and SAG 300 nM in step 1, substance added in step 2 (SAG 30 nM, Purmorphamine 0.2 μM or human recombinant Shh 300 ng/ml), BMP4 1.5 nM on day 3, day 20) was “about 90%”.

With `NC(=O)c1ccc(-c2nc(-c3ccc4c(c3)OCO4)c(-c3ccccn3)[nH]2)cc1` [SB431542, 4-(5-benzol[1,3]dioxol-5-yl-4-pyridin-2-yl-1H-imidazol-2-yl)-benzamide], under setting [1], the “proportion of Chx10-positive cells in the total cells” value was not below 20% and the “proportion of Rx-strong positive cells in the total cells” value was not below 30%. Also, under setting [2], the “Rx-strong positive (corresponding to retina)” value is “less than 3%”, the “Rx-weak positive (corresponding to neural tissue other than retina)” value was “less than 7%”, the “proportion of Chx10-positive cells” value is reported as “less than 3%” and the “proportion of Rx-positive cells in the total cells” value (from here on “proportion of Rx-positive cells”) is listed as “less than 10%”. Under setting [3], the “proportion of Chx10-positive cells in the total cells” value is given as not below 70% and the “proportion of Rx-positive cells” value is not below 80%.

On to `c1ccc2c(-c3cnn4cc(-c5ccc(N6CCNCC6)cc5)cnc34)ccnc2c1` [LDN193189, 4-[6-(4-piperazin-1-ylphenyl)pyrazolo[1,5-a]pyrimidin-3-yl]quinoline], for which, under setting [4], the “proportion of Chx10-positive cells in the total cells” value is on record as “about 60%” and the “proportion of Rx-positive cells” value is given as “about 60%”. For the same compound, under setting [5], the “Rx-strong positive (corresponding to retina)” value is on record as “less than 3%”, the “Rx-weak positive (corresponding to neural tissue other than retina)” value was “less than 7%”, the “proportion of Chx10-positive cells” value is given as “less than 3%” and the “proportion of Rx-positive cells” value is given as “less than 10%”. Moreover, under setting [3], the “proportion of Chx10-positive cells in the total cells” value was not below 40% and the “proportion of Rx-positive cells” value was not below 50%.
